According to patent US6943190B2, “Method of using pyruvate and/or its derivatives for the treatment of cytokine-mediated inflammatory conditions” (University of Pittsburgh-of the Commonwealth System of …, priority 2001, dated 2005):
Where two headings read alike, the source gives them in different places.

Tests used:
[1] = Stability of pyruvate esters in aqueous solution; format: physicochemical; conditions: in the presence of calcium salts; compared with sodium pyruvate
[2] = system: TNF gene transcript; experiment: TNF mRNA in LPS-stimulated RAW 264.7 cells (RNase protection assay); format: cell-based, murine
Method: (§1) Cell Culture. BALB/c murine macrophage-like RAW 264.7 cells obtained from the American Type Culture Collection (ATCC Number TIB-71, ATCC, Rockville, Mass.) (61), were cultured in RPMI 1640 (Life Technologies, Grand Island, N.Y.) supplemented with 10% heat inactivated fetal bovine serum (Gemini, Calabasas, Calif.), 2 mM glutamine (Cat. # 25030-149, Gibco BRL, Rockville, Mass.) and antibiotic-antimycotic mix (Cat. # 15240-062, Gibco BRL, Rockville, Mass.) in a humidified incubator with 5% CO2. Cells were mechanically removed and resuspended in serum-free Opti-MEM I medium (Life Technology, Grand Island, N.Y.) to perform experiments at 75% confluence.
Total RNA extraction and RNase protection assay. […] The levels of TNF and cyclophilin mRNA in RAW cells were measured using an RNase protection assay kit from PharMingen in accordance with the manufacturer's instructions (San Diego, Calif.). […] Molecular weight markers were prepared using pBR-322 plasmid DNA digested with MSP I (New England Bio Labs, Beverly, Mass.) and Klenow end-labeled (Strategene, La Jolla, Calif.) with ^α-32P-dCTP (800 Ci/mmol, Amersham); mRNA levels were measured with an Instantlmager (Packard Instrument Co., Meriden, Conn.).
To determine the effect of ethyl pyruvate on TNF synthesis by macrophages, murine macrophage-like RAW 264.7 cells were stimulated with endotoxin, and TNF measured in the conditioned media. […]

[3] = system: IL-1; experiment: Peak serum IL-1 in endotoxemic mice (ELISA); format: in vivo, Balb/C mice; conditions: pretreatment, data not shown
Method: Endotoxin shock. Mice were injected with endotoxin (Escherichia coli lipopolysaccharide, LPS 0111:B4; Sigma Chemical Co, St. Louis, Mo.) that was dissolved in sterile pyrogen-free saline at stock concentrations of 10 mg/ml. LPS solutions were sonicated for 20 min immediately prior to use for each experiment. Mice received an LD75 dose of LPS (5 mg/kg, i.p.). Blood was collected at different times after LPS administration, allowed to clot for 2 h at room temperature, then centrifuged for 20 min at 1,500 g. Serum samples were stored at […] prior to analysis. Mortality was recorded for up to 3 weeks after injection to ensure that no additional late deaths occurred.
(§2) Cytokine measurements. TNF concentration in mouse serum and in conditioned media from RAW 264.7 cell cultures was measured by ELISA (minimum detectable concentration=10 pg/ml). […] Mouse serum IL-6 and IL-1β levels were measured using ELISA kits (R&D Systems, Inc., Minneapolis, Minn.). HMGB-1 was analyzed by western blot as previously described by Wang et al, 1999. […] Protein was electroblotting to Immun-blot PVDF membrane (Bio-rad, Hercules Calif.) and HMGB-1 was analyzed using polyclonal 241 antibody and secondary anti-rabbit horseradish peroxidase (Amersham, Pitscataway, N.J.). Standard curves were constructed using r-HMGB-1, and the intensity of the 30 kD band analyzed by densitometry. […]

[4] = system: TNF; experiment: TNF release by LPS-stimulated RAW 264.7 macrophage cultures (ELISA); format: cell-based, murine
Method: as §1, §2

## CCOC(=O)C(C)=O [ethyl pyruvate]
[1]
  stability of aqueous solution: more stable aqueous solution than sodium pyruvate
[2]
  amount of TNF mRNA / TNF transcription: prevents LPS-induced transcription of TNF in an ethyl pyruvate concentration dependent fashion
[2]; listed as Ethyl pyruvate
  amount of TNF mRNA / TNF transcription: significantly reduced the amount of TNF mRNA
[3]
  peak serum level of IL-1: attenuated
[4]; LPS-stimulated RAW 264.7 cells, highest doses of ethyl pyruvate
  synthesis of TNF at the highest doses tested: not completely inhibited
[4]; Mus musculus, RAW264.7, RAW 264.7 cells stimulated with 50 or 100 ng/ml LPS, conditioned media, read-out: concentration that suppressed 50% of the TNF response (EC50)
  EC50: 3.4 mM
